The values that follow come from ChEMBL document CHEMBL1201862, “PubChem BioAssay data set” (2004).

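Exposure lasted 48 hours, with cells grown in 96-well plates and compounds tested at five concentrations. GI50: concentration for 50% inhibition of growth.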 The source made the active and inactive calls. No stated cut-off is given here; in the data, active = GI50 up to about 1.1 µM and inactive = higher.

Among the test systems are SF-295; OVCAR-4; M14; SN12C; UACC-257; SNB-19; HOP-62; EKVX; OVCAR-5; SNB-75; NCI-H23; SF-268; MOLT-4; NCI-H522; K562; SK-MEL-28; HCT-116; SW-620; Malme-3M; SF-539.
What all share (experiment): NCI-60 cell line screen, 48 h

Consider `CCOC(=O)CSc1c(C(=O)OCC)c(=O)n(-c2ccccc2)c(=S)n1-c1ccccc1`, for which the GI50 in the assay on SF-295 is 36.7 µM (inactive); in the assay on OVCAR-4, 53.5 µM (inactive); with M14, > 100 µM (inactive); with SN12C it was 29.6 µM (inactive); in the assay with UACC-257, 29.2 µM (inactive); with SNB-19, 34.7 µM (inactive). The GI50 is > 100 µM (inactive) in the assay with HOP-62; 62.8 µM (inactive) in the assay on EKVX; > 100 µM (inactive) in the assay on OVCAR-5; 54.6 µM (inactive) in the assay on SNB-75; 22.7 µM (inactive) in the assay on NCI-H23; > 100 µM (inactive) in the assay with SF-268. Further, the GI50 in the assay with MOLT-4 was 5.61 µM (inactive); with NCI-H522 it was > 100 µM (inactive); in the assay on K562, 7.53 µM (inactive); with SK-MEL-28, > 100 µM (inactive); in the assay on HCT-116, 45.7 µM (inactive); in the assay with SW-620, 9.42 µM (inactive). Further, in the assay on Malme-3M, the GI50 was > 100 µM (inactive).

Consider `Cc1ccc([N+](=O)[O-])cc1NC(=O)C(=O)C(C(=O)c1ccccc1F)C1OC(=O)c2ccccc21` (centres undefined), for which the GI50 with SF-295 was 42.6 µM (inactive); in the assay with OVCAR-4, 65 µM (inactive); in the assay on M14, 66.8 µM (inactive); in the assay with SN12C, 33.8 µM (inactive); in the assay on UACC-257, > 100 µM (inactive); in the assay on SNB-19 it was 15.3 µM (inactive). For the same compound, the GI50 in the assay on HOP-62 was 40.7 µM (inactive); in the assay with EKVX it was 46 µM (inactive); in the assay with OVCAR-5, 61.4 µM (inactive); with SNB-75 it was 38.5 µM (inactive); in the assay with NCI-H23 it was 38.5 µM (inactive); in the assay with SF-268, 25.5 µM (inactive). For the same compound, the GI50 in the assay on MOLT-4 was 36.1 µM (inactive); in the assay with NCI-H522, 20.3 µM (inactive); in the assay with K562, 32.7 µM (inactive); in the assay with SK-MEL-28, 36.4 µM (inactive); in the assay on HCT-116, 31.5 µM (inactive); in the assay on SF-539, 24.5 µM (inactive). In the assay on SW-620, the GI50 was 35.1 µM (inactive).

Regarding `COC1/C=C/C(C)C(C(C)C(OC)C(C)CCC(=O)C(C)C(C/C=C/N(C)C=O)OC)OC(=O)/C=C/C=C(\C)CC(OC)CC2=CC(=O)O[C@H](C2)C(C)C(OC)CC(OC)/C=C/C(C)C(OC)C1` (some centres undefined), the GI50 in the assay with SF-295 was 0.00619 µM (active); in the assay with OVCAR-4 it was 0.0984 µM (active); with SN12C, 0.014 µM (active); with UACC-257 it was 0.00819 µM (active); in the assay with SNB-19 it was 0.0149 µM (active); with HOP-62, < 0.005 µM (active). Also, the GI50 is 0.084 µM (active) in the assay on EKVX; < 0.005 µM (active) with SNB-75; 0.0521 µM (active) in the assay with NCI-H23; 0.0336 µM (active) in the assay with SF-268; < 0.005 µM (active) with MOLT-4; 0.00588 µM (active) in the assay on NCI-H522. Besides, the GI50 was 0.00875 µM (active) in the assay with SK-MEL-28, < 0.005 µM (active) in the assay on HCT-116, 0.00766 µM (active) with SW-620 and 0.00966 µM (active) in the assay with Malme-3M.

As to `CN(C)c1ccc(C2SCC(=O)N2NS(=O)(=O)c2cccc(C(=O)O)c2)cc1` (centres undefined), the GI50 in the assay on SF-295 is 94 µM (inactive); with M14, > 100 µM (inactive); in the assay with SN12C, > 100 µM (inactive); in the assay with UACC-257 it was > 100 µM (inactive); in the assay with SNB-19, > 100 µM (inactive); with HOP-62 it was > 100 µM (inactive). In addition, the GI50 was > 100 µM (inactive) in the assay with EKVX; > 100 µM (inactive) in the assay with OVCAR-5; > 100 µM (inactive) in the assay with SNB-75; > 100 µM (inactive) in the assay with NCI-H23; > 100 µM (inactive) with SF-268; 42.8 µM (inactive) in the assay on MOLT-4. Moreover, the GI50 with NCI-H522 was 28.2 µM (inactive); with K562, 35.6 µM (inactive); in the assay with SK-MEL-28 it was 97.7 µM (inactive); with HCT-116, > 100 µM (inactive); in the assay on SF-539, 46.3 µM (inactive); with SW-620, > 100 µM (inactive). Besides, the GI50 in the assay with Malme-3M is 99.8 µM (inactive).

With `FC(F)(F)C(C1=NC(C(F)(F)F)(C(F)(F)F)N=C(N2CCOCC2)O1)C(F)(F)F`, the GI50 in the assay on SF-295 is 16 µM (inactive); with OVCAR-4, 22.9 µM (inactive); with M14, 18.8 µM (inactive); with SN12C, 11.1 µM (inactive); in the assay with UACC-257, 20.8 µM (inactive); with SNB-19, 25.9 µM (inactive). Further, the GI50 is 17.1 µM (inactive) in the assay with EKVX; 18.1 µM (inactive) in the assay with OVCAR-5; 29.5 µM (inactive) in the assay on SNB-75; > 10 µM (inactive) with NCI-H23; 36.1 µM (inactive) with SF-268; 28.9 µM (inactive) in the assay with MOLT-4. Moreover, the GI50 in the assay with NCI-H522 was 20.2 µM (inactive); in the assay on SK-MEL-28, 20.1 µM (inactive); with HCT-116, 27.7 µM (inactive); in the assay with SF-539, 22.4 µM (inactive); in the assay with SW-620 it was 14.2 µM (inactive).

Consider `N#CC1(CCCI)CCCC1`, for which the GI50 with SF-295 was 29.4 µM (inactive); in the assay with M14 it was 5.83 µM (inactive); with SN12C, 12.3 µM (inactive); in the assay with UACC-257 it was 22.6 µM (inactive); in the assay with SNB-19, 15.8 µM (inactive); in the assay on EKVX it was 47.4 µM (inactive). For the same compound, the GI50 with OVCAR-5 was 25.1 µM (inactive); in the assay on SNB-75 it was 1.53 µM (inactive); in the assay with NCI-H23, 9.79 µM (inactive); with SF-268, 12.6 µM (inactive); in the assay with MOLT-4, 13.8 µM (inactive); in the assay on NCI-H522 it was 3.24 µM (inactive). The GI50 in the assay on K562 was 27.7 µM (inactive); with SK-MEL-28, 16.5 µM (inactive); in the assay with HCT-116, 4.18 µM (inactive); in the assay with SF-539, 15.5 µM (inactive); with SW-620, 10.7 µM (inactive); with Malme-3M it was 18.8 µM (inactive).

On to `CCN(CC)CCCC(C)Nc1cc(-c2ccccc2)nc2cc(OC)ccc12` (centres undefined), for which the GI50 was 8.79 µM (inactive) with SF-295; 4.88 µM (inactive) in the assay with OVCAR-4; 1.84 µM (inactive) with M14; 17.4 µM (inactive) in the assay with UACC-257; > 10 µM (inactive) in the assay on SNB-19; 5.25 µM (inactive) with HOP-62. Moreover, the GI50 is 2.48 µM (inactive) with OVCAR-5; 11.8 µM (inactive) in the assay with SNB-75; 15.4 µM (inactive) in the assay with NCI-H23; 12.8 µM (inactive) in the assay on SF-268; 2.14 µM (inactive) with MOLT-4; 6.44 µM (inactive) in the assay with NCI-H522. The GI50 with K562 is 0.8 µM (active); in the assay with SK-MEL-28 it was 6.22 µM (inactive); in the assay on HCT-116, 2.84 µM (inactive); with SF-539, 3.05 µM (inactive); in the assay on Malme-3M it was 10.4 µM (inactive).

Turning to `N#Cc1c(-c2ccccc2)cn(C(=O)c2ccccc2)c1N`, the GI50 was > 100 µM (inactive) in the assay on SF-295; 21.3 µM (inactive) in the assay with OVCAR-4; > 100 µM (inactive) in the assay with M14; > 100 µM (inactive) in the assay with SN12C; > 100 µM (inactive) in the assay with SNB-19; > 100 µM (inactive) with HOP-62. In addition, the GI50 in the assay with EKVX, in the assay on OVCAR-5, with SNB-75, with NCI-H23, with SF-268 and with MOLT-4 was > 100 µM (inactive) in each case. Also, the GI50 in the assay on NCI-H522, in the assay on K562, in the assay on SK-MEL-28, in the assay with HCT-116, with SW-620 and in the assay on Malme-3M was > 100 µM (inactive) in each case.

Take `CC(C)O/C=C1\C(=O)C2(SCCS2)[C@H]2CCCC[C@@H]12`: the GI50 in the assay on OVCAR-4 was 48.9 µM (inactive); in the assay with M14 it was 42.6 µM (inactive); in the assay on SN12C, 68.7 µM (inactive); with UACC-257, 42.6 µM (inactive); in the assay with SNB-19, 39.5 µM (inactive); in the assay with HOP-62, 38 µM (inactive). Besides, the GI50 with SNB-75 is 28.8 µM (inactive); in the assay with SF-268 it was 39 µM (inactive); in the assay on MOLT-4, 16.2 µM (inactive); with NCI-H522 it was 20.5 µM (inactive); in the assay on K562, 39.8 µM (inactive); in the assay with SK-MEL-28, > 100 µM (inactive). For the same compound, the GI50 with HCT-116 is 34.4 µM (inactive); with SF-539 it was 44.3 µM (inactive); with SW-620, 42.7 µM (inactive); in the assay on Malme-3M it was 32.7 µM (inactive).

As for `O=c1c2c3c(sc2nc(CN2CCNCC2)n1-c1ccccc1)CCCC3`, the GI50 with SF-295 was > 100 µM (inactive); in the assay with OVCAR-4 it was 22.8 µM (inactive); in the assay on M14, > 100 µM (inactive); with SN12C, > 100 µM (inactive); in the assay with UACC-257, > 100 µM (inactive); in the assay with SNB-19, > 100 µM (inactive). Besides, the GI50 in the assay on HOP-62 is > 100 µM (inactive); with EKVX, > 100 µM (inactive); in the assay on OVCAR-5, > 100 µM (inactive); in the assay with SNB-75, 34.8 µM (inactive); in the assay on NCI-H23, > 100 µM (inactive); in the assay with SF-268 it was 65.5 µM (inactive). Moreover, the GI50 in the assay with MOLT-4 is > 100 µM (inactive); with NCI-H522, > 100 µM (inactive); in the assay on K562, > 100 µM (inactive); with SK-MEL-28 it was > 100 µM (inactive); in the assay with HCT-116, 53.3 µM (inactive); in the assay with SW-620 it was > 100 µM (inactive). Also, in the assay on Malme-3M, the GI50 is > 100 µM (inactive).

Take `CN1C(=O)CN=C(c2ccccc2F)c2cc(N=C=S)ccc21`: the GI50 in the assay on SF-295 is 52.8 µM (inactive); in the assay on OVCAR-4 it was 35.4 µM (inactive); in the assay with M14 it was 52.1 µM (inactive); in the assay on SN12C it was 96.2 µM (inactive); in the assay on UACC-257, 43.5 µM (inactive); with SNB-19, 60 µM (inactive). The GI50 with HOP-62 is > 100 µM (inactive); with EKVX, > 100 µM (inactive); with OVCAR-5 it was > 100 µM (inactive); with SNB-75, 33.5 µM (inactive); in the assay with NCI-H23, 62.4 µM (inactive); in the assay with SF-268, 67 µM (inactive). Moreover, the GI50 in the assay with NCI-H522 was 0.665 µM (active); in the assay on HCT-116, 44.3 µM (inactive); in the assay on SW-620, 53.5 µM (inactive); in the assay on Malme-3M, > 100 µM (inactive).
